In patent US20090042987A1, “TREATMENT OF NEUROPATHIC PAIN” (priority 2007, published 2009):
“Also recorded” adds a separate entry of the source.

System: drug-naïve STZ-diabetic rats
Experiment: von Frey paw withdrawal thresholds, drug-naïve STZ-diabetic rats, Example 2
Type: in vivo, rat
Details: for Mean duration of action / Time of peak anti-allodynia post-dosing: 7th twice-daily dose; for Mean (±SEM) AUC (area under the normalized PWT versus time curve) / Mean (±SEM) Peak response (PWT) / Mean (±SEM) % MPR at peak: after 7th consecutive twice-daily dose; for Mean (±SEM) % MPR at peak: 100% MPR = full reversal of tactile allodynia
Description: Experimental Animals Ethical approval for this study was obtained from the Animal Experimentation Ethics Committee of The University of Queensland. Adult male Sprague-Dawley (SD) rats (222±4 g) were used for this study. Rats were housed in a temperature controlled room (21+2.0 C) with a 12/12 hour light/dark cycle. Food and water were available ad libitum. Initiation of drug administration occurred at 8-11 weeks post-STZ administration for rats in Experiment 1 (PCT-001) and at 10-12 weeks post-STZ administration for rats in Experiment 2 (PCT-007).
Test Article Tranilast was supplied by the Sponsor and stored at −4° C. until use. Gabapentin (100 mg/kg, dissolved in water for injection) was utilized as the positive control for this study.
Test Article and Vehicle Preparation Test article formulations were prepared freshly on the day of administration by weighing the appropriate amount of bulk powder and suspending it in the required volume of vehicle. Carboxymethyl cellulose ((CMC) 0.5% in water for injection) was utilized as the vehicle for this study.
Test Article Administration. […] The maximum oral gavage volume administered in this study was […]. 4.4
STZ-Diabetic Rat Model of Painful Diabetic Neuropathy. Painful diabetic neuropathy is a common long-term complication of diabetes in humans that develops as a result of a sustained biochemical nerve injury. […] Following the induction of diabetes with intravenous STZ at 70-80 mg/kg, it generally takes 6-8 wks for tactile allodynia, the defining symptom of PDN, to fully develop in both rat hindpaws.
Induction of STZ-Diabetes in Rats. On day 0, rats were anaesthetized with 3% isoflurane:97% O2 and a short polyethylene cannula (0.5 mm ID, 0.8 mm OD) was inserted into the jugular vein to facilitate the intravenous (i.v.) administration of a single dose of streptozotocin (STZ: 70-80 mg/kg). After STZ injection, the cannula was removed and the jugular vein was tied off and the wound was closed. Rats received subcutaneous benzylpenicillin (60 mg) prior to surgery to prevent infection and were kept warm during surgical recovery. Rats were housed singly prior to further experimentation and were monitored daily from the time of STZ administration with regard to general health and well-being.
Von Frey Assessment of Paw Withdrawal Thresholds. Calibrated von Frey filaments were used to determine the lowest mechanical threshold required to evoke a brisk paw withdrawal reflex in the rat hindpaws. Briefly, rats were transferred individually to wire mesh testing cages (20 cm×20 cm×20 cm) and allowed to acclimatize for approximately 10-20 min prior to von Frey testing. Commencing with the von Frey filament that produced the 6 g force, the filament was applied to the plantar surface of the hindpaw until the filament buckled slightly. Absence of a response after 3 s prompted use of the next filament of increasing weight. A withdrawal response within 3 s prompted use of the next filament of decreasing weight. Filaments used produced buckling weights of 2, 4, 6, 8, 10, 12, 14, 16, 18 and 20 g. […] Tactile allodynia is regarded as being fully developed when von Frey PWTs in the injured hindpaws are <6 g.
Restoring von-Frey PWTs in the hindpaws from <6 g to pre-STZ surgery levels (12±2 g) is the treatment goal representing full reversal of tactile allodynia. If drug treatment increases PWTs above pre-surgical baseline values (i.e. >12±2 g), such a response is classified as antinociception. Before administration of STZ, baseline von Frey measurements were assessed. Following STZ administration, baseline PWTs were assessed in the hindpaws at week 8-11 to confirm the development of diabetes-induced tactile allodynia.
Dose-Response Curve for Tranilast in Drug-Naive STZ-Diabetic Rats. […]

[1] = tranilast 100, 200, 300 and 400 mg/kg oral, 7 consecutive twice-daily doses

Question: How did the “Mean (±SEM) von Frey Paw Withdrawal threshold following the 7th consecutive dose” value (tranilast 300 mg/kg oral twice-daily, time 0.75 h) turn out when COc1ccc(/C=C/C(=O)Nc2ccccc2C(=O)O)cc1OC [Tranilast, 2-[[3-(3,4-dimethoxyphenyl)-1-oxo-2-propenyl]amino]benzoic acid] was run?
Answer: 11 ± 1.6 g

Question: What about the “Mean (±SEM) von Frey Paw Withdrawal threshold following the 7th consecutive dose” value (tranilast 300 mg/kg oral twice-daily, time 1 h) of the same compound?
Answer: 12.2 ± 1.3 g

Question: What about the “Mean (±SEM) von Frey Paw Withdrawal threshold following the 7th consecutive dose” value (tranilast 300 mg/kg oral twice-daily, time 1.25 h) of the same compound?
Answer: 13 ± 1.3 g

Question: And the “Mean (±SEM) von Frey Paw Withdrawal threshold following the 7th consecutive dose” value (tranilast 300 mg/kg oral twice-daily, time 1.25 h, listed as tranilast)?
Answer: 13.0 (±1.3) g

Question: And the “Mean (±SEM) von Frey Paw Withdrawal threshold following the 7th consecutive dose” value (tranilast 300 mg/kg oral twice-daily, time 1.5 h)?
Answer: 12.4 ± 1.1 g

Question: And the “Mean (±SEM) von Frey Paw Withdrawal threshold following the 7th consecutive dose” value (tranilast 300 mg/kg oral twice-daily, time 2 h)?
Answer: 12.0 ± 2.2 g

Question: And the “Mean (±SEM) von Frey Paw Withdrawal threshold following the 7th consecutive dose” value (tranilast 300 mg/kg oral twice-daily, time 3 h)?
Answer: 9.0 ± 2.7 g

Question: What about the “Relief of tactile allodynia in the hindpaws” value (tranilast 300 mg/kg oral, 7 consecutive twice-daily doses (n=5)) of the same compound?
Answer: significant relief of tactile allodynia

Question: And the “AUC of anti-allodynic response versus time compared with vehicle” value (tranilast 300 mg/kg oral, 7th consecutive twice-daily dose)?
Answer: significantly greater (p<0.05)

Question: And the “Mean duration of action” value (tranilast 300 mg/kg oral)?
Answer: > 3 h

Question: And the “Time of peak anti-allodynia post-dosing” value (tranilast 300 mg/kg oral)?
Answer: 1 to 1.5 h

Question: And the “Mean (±SEM) AUC (area under the normalized PWT versus time curve)” value (tranilast 300 mg/kg oral)?
Answer: 17.2 ± 3.3

Question: And the “Mean (±SEM) Peak response (PWT)” value (tranilast 300 mg/kg oral)?
Answer: 13.0 ± 1.3

Question: And the “Mean (±SEM) % MPR at peak” value (tranilast 300 mg/kg oral)?
Answer: 147.8 ± 23.6%

Question: And the “Mean (±SEM) von Frey Paw Withdrawal threshold assessed prior to dose” value (tranilast 400 mg/kg oral twice-daily, prior to dose 1)?
Answer: 5.1 ± 0.5 g

Question: What about the “Mean (±SEM) von Frey Paw Withdrawal threshold assessed prior to dose” value (tranilast 400 mg/kg oral twice-daily, prior to dose 3) of the same compound?
Answer: 5.1 ± 0.5 g

Question: What about the “Mean (±SEM) von Frey Paw Withdrawal threshold assessed prior to dose” value (tranilast 400 mg/kg oral twice-daily, prior to dose 5) of the same compound?
Answer: 4.8 ± 0.5 g

Question: What about the “Mean (±SEM) von Frey Paw Withdrawal threshold assessed prior to dose” value (tranilast 400 mg/kg oral twice-daily, prior to dose 7) of the same compound?
Answer: 5.2 ± 0.5 g

Question: What about the “Mean (±SEM) von Frey Paw Withdrawal threshold following the 7th consecutive dose” value (tranilast 400 mg/kg oral twice-daily, time 0 h (pre-dose)) of the same compound?
Answer: 5.2 ± 0.4 g

Question: What about the “Mean (±SEM) von Frey Paw Withdrawal threshold following the 7th consecutive dose” value (tranilast 400 mg/kg oral twice-daily, time 0 h (pre-dose), listed as tranilast) of the same compound?
Answer: 5.2 (±0.4) g

Question: And the “Mean (±SEM) von Frey Paw Withdrawal threshold following the 7th consecutive dose” value (tranilast 400 mg/kg oral twice-daily, time 0.15 h)?
Answer: 6.0 ± 0 g

Question: What about the “Mean (±SEM) von Frey Paw Withdrawal threshold following the 7th consecutive dose” value (tranilast 400 mg/kg oral twice-daily, time 0.5 h) of the same compound?
Answer: 6.25 ± 0.2 g

Question: What about the “Mean (±SEM) von Frey Paw Withdrawal threshold following the 7th consecutive dose” value (tranilast 400 mg/kg oral twice-daily, time 0.75 h) of the same compound?
Answer: 7.5 ± 0.5 g

Question: What about the “Mean (±SEM) von Frey Paw Withdrawal threshold following the 7th consecutive dose” value (tranilast 400 mg/kg oral twice-daily, time 1 h) of the same compound?
Answer: 8.75 ± 0.25 g

Question: What about the “Mean (±SEM) von Frey Paw Withdrawal threshold following the 7th consecutive dose” value (tranilast 400 mg/kg oral twice-daily, time 1 h, listed as tranilast) of the same compound?
Answer: 8.8 (±0.3) g

Question: What about the “Mean (±SEM) von Frey Paw Withdrawal threshold following the 7th consecutive dose” value (tranilast 400 mg/kg oral twice-daily, time 1.25 h) of the same compound?
Answer: 7.8 ± 0.25 g

Question: What about the “Mean (±SEM) von Frey Paw Withdrawal threshold following the 7th consecutive dose” value (tranilast 400 mg/kg oral twice-daily, time 1.5 h) of the same compound?
Answer: 8.0 ± 0 g

Question: What about the “Mean (±SEM) von Frey Paw Withdrawal threshold following the 7th consecutive dose” value (tranilast 400 mg/kg oral twice-daily, time 2 h) of the same compound?
Answer: 7.8 ± 0.25 g

Question: And the “Mean (±SEM) von Frey Paw Withdrawal threshold following the 7th consecutive dose” value (tranilast 400 mg/kg oral twice-daily, time 3 h)?
Answer: 6.5 ± 0.3 g

Question: And the “Mean duration of action” value (tranilast 400 mg/kg oral)?
Answer: 3 h

Question: What about the “Time of peak anti-allodynia post-dosing” value (tranilast 400 mg/kg oral) of the same compound?
Answer: 0.75 to 1.25 h

Question: And the “Mean (±SEM) AUC (area under the normalized PWT versus time curve)” value (tranilast 400 mg/kg oral)?
Answer: 6.3 ± 0.9

Question: And the “Mean (±SEM) Peak response (PWT)” value (tranilast 400 mg/kg oral)?
Answer: 8.75 ± 0.25

Question: What about the “Mean (±SEM) % MPR at peak” value (tranilast 400 mg/kg oral) of the same compound?
Answer: 62.2 ± 4.2%

Question: And the “Peak anti-allodynic response compared with vehicle” value [1]?
Answer: significantly (p<0.05) greater

Question: What about the “Relief of tactile allodynia in the hindpaws” value [1] of the same compound?
Answer: significant relief of tactile allodynia; also recorded: anti-allodynia was produced

Question: And the “% MPR at the time of peak effect compared with vehicle” value (tranilast 100, 200, 300 and 400 mg/kg oral, 7th consecutive twice-daily dose)?
Answer: significantly greater than that for vehicle

Question: What about the “AUC of anti-allodynic response versus time compared with vehicle” value (tranilast 100, 200 and 400 mg/kg oral, 7th consecutive twice-daily dose) of the same compound?
Answer: did not reach statistical significance

Question: What about the “Dosing regimen producing the maximum anti-allodynic effect” value (tranilast 100-400 mg/kg oral, 7 consecutive twice-daily doses) of the same compound?
Answer: maximum anti-allodynic effect appeared to be produced by the 300 mg/kg dosing regimen

Question: And the “Baseline PWT thresholds assessed prior to dose 1, 3, 5 and 7” value (tranilast at all doses (100-400 mg/kg oral twice-daily))?
Answer: not significantly different
